target: IGF-1R (Homo sapiens (Human), UniProt P08069); test: Example B-1: IGF-1R Assay (PC3 cells, IGF1 stimulation, AlphaLISA); type: cell-based; conditions: 200 ng/mL IGF1 stimulation, read-out: Biological Activity against IGF-1R IC50
Outline: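 Readout is AlphaLISA signal from lysed PC3 cells, expressed as % inhibition versus vehicle and EC80 controls and banded by IC50. Before lysis, the cells were starved of serum for 2 h, exposed to 3× serially diluted compound for 2 h, and stimulated for 30 min with 200 ng/mL IGF1 (final).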

Chain of IGF-1R (P08069 31-1367): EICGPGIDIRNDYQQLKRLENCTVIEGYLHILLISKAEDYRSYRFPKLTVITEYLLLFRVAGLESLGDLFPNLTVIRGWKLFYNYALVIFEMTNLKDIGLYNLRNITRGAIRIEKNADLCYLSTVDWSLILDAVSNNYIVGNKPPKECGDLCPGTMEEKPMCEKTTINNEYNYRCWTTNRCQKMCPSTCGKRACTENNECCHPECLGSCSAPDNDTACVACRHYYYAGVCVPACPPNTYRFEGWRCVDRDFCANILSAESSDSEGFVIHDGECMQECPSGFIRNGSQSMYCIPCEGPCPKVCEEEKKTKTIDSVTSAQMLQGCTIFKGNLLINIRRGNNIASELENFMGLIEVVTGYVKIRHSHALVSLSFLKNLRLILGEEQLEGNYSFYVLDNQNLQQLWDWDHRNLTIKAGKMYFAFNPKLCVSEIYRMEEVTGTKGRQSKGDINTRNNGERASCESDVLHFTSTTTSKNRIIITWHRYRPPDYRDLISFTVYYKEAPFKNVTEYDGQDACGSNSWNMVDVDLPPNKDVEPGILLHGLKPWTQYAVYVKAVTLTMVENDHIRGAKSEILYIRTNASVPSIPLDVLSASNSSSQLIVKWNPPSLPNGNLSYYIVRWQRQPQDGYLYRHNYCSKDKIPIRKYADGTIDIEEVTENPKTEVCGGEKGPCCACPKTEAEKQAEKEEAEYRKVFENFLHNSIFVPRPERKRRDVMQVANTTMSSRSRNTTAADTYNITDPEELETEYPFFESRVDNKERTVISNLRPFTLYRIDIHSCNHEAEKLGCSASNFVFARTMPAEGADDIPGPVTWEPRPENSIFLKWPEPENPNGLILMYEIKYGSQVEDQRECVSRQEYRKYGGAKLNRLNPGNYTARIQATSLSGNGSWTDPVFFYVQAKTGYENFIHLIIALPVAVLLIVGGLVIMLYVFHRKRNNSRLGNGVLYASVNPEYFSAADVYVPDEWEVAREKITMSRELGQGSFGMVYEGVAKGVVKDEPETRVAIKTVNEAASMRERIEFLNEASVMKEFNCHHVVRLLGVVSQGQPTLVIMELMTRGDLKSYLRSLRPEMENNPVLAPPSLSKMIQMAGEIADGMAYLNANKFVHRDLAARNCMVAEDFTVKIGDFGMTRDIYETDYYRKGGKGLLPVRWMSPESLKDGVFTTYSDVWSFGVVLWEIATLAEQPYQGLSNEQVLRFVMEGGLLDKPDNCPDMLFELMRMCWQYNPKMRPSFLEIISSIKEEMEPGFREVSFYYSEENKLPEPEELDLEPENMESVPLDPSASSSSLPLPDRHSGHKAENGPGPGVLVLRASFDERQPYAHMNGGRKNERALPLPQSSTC

Compound	IC50 [nM]
COc1cc(Nc2nccc(Nc3cc4cc(F)ccc4[nH]c3=O)n2)ccc1O[C@H]1C[C@@H](N(C)C)C1 [Compound 121, 6-fluoro-3-(2-{3-methoxy-4-[(1s,3s)-3-(dimethylamino)cyclobutoxy]phenyl-amino}-4-pyrimidinylamino)-1,2-dihydro-2-quinolinone]	≤ 500
COc1cc(Nc2nccc(Nc3cnc4cc(Cl)ccc4c3)n2)ccc1O[C@H]1C[C@H](N(C)C)C1 [Compound 324, 4-(7-chloro-3-quinolylamino)-2-{3-methoxy-4-[(1r,3r)-3-(dimethylamino)cyclobutoxy]phenylamino}pyrimidine]	≤ 500
COCCN(C)[C@H]1C[C@@H](Oc2ccc(Nc3nccc(Nc4cnc5cc(F)c(F)cc5c4)n3)cc2OC)C1 [Compound 47, 4-(6,7-difluoro-3-quinolylamino)-2-(3-methoxy-4-{(1s,3s)-3-[(2-methoxyethyl)-N-methylamino]cyclobutoxy}phenylamino)pyrimidine]	≤ 500
COc1cc(Nc2nccc(Nc3cnc4cnc(Cl)cc4c3)n2)ccc1O[C@H]1C[C@@H](N(C)C)C1 [Compound 87, 4-(6-chloro-1,7-diaza-3-naphthylamino)-2-{3-methoxy-4-[(1s,3s)-3-(dimethylamino)cyclobutoxy]phenylamino}pyrimidine]	≤ 500
COc1cc(Nc2nccc(Nc3cnc4ccccc4c3)n2)ccc1O[C@H]1C[C@H](N2CCS(=O)(=O)CC2)C1 [Compound 24]	≤ 500
COc1cc(Nc2nc(N)cc(Nc3cnc4cc(F)c(F)cc4c3)n2)cnc1O[C@H]1C[C@@H](N(C)C)C1 [Compound 252, 6-amino-4-(6,7-difluoro-3-quinolylamino)-2-{5-methoxy-6-[(1s,3s)-3-(dimethylamino)cyclobutoxy]-3-pyridylamino}pyrimidine]	2000 to 10000
COc1cc(Nc2nccc(Nc3cnc4cc(F)cnc4c3)n2)ccc1O[C@H]1C[C@@H](N(C)C)C1 [Compound 272, 4-(7-fluoro-1,5-diaza-3-naphthylamino)-2-{3-methoxy-4-[(1s,3s)-3-(dimethylamino)cyclobutoxy]phenylamino}pyrimidine]	≤ 500
COc1cc(Nc2nccc(Nc3cnc4cc(OC(F)(F)F)ccc4c3)n2)ccc1O[C@H]1C[C@H](N(C)C)C1 [Compound 8, 2-{3-methoxy-4-[(1r,3r)-3-(dimethylamino)cyclobutoxy]phenylamino}-4-(7-trifluoromethoxy-3-quinolylamino)pyrimidine]	≤ 500
COc1ccc2cc(Nc3ccnc(Nc4ccc(O[C@H]5C[C@@H](N6CCOCC6)C5)cc4)n3)cnc2c1 [Compound 352, 4-(7-methoxy-3-quinolylamino)-2-{p-[(1s,3s)-3-morpholinocyclobutoxy]phenylamino}pyrimidine]	2000 to 10000
COc1cc(Nc2nccc(Nc3cnc4c(c3)CC3(CCCC3)CC4)n2)ccc1O[C@H]1C[C@H](N(C)C)C1 [Compound 79, 4-(7′,8′-dihydro-5′H-spiro[cyclopentane-1,6′-quinolin]-3′-ylamino)-2-{3-methoxy-4-[(1r,3r)-3-(dimethylamino)cyclobutoxy]phenylamino}pyrimidine]	≤ 500
COc1cc(Nc2nccc(Nc3cnc4cc(Cl)cnc4c3)n2)cnc1O[C@H]1C[C@@H](N(C)C)C1 [Compound 279, 4-(7-chloro-1,5-diaza-3-naphthylamino)-2-{5-methoxy-6-[(1s,3s)-3-(dimethylamino)cyclobutoxy]-3-pyridylamino}pyrimidine]	500 to 2000
CN(C)[C@H]1C[C@@H](Oc2ccc(Nc3nccc(Nc4cnc5c(c4)OCCO5)n3)cc2C#N)C1 [Compound 43, 5-[4-(2,3-dihydro-1,4-dioxa-5-aza-7-naphthylamino)-2-pyrimidinylamino]-2-[(1s,3s)-3-(dimethylamino)cyclobutoxy] benzonitrile]	≤ 500
COc1cc(Nc2nccc(Nc3cccnc3C(N)=O)n2)ccc1O[C@H]1C[C@@H](N(C)C)C1 [Compound 284, 3-(2-{3-methoxy-4-[(1s,3s)-3-(dimethylamino)cyclobutoxy]phenylamino}-4-pyrimidinylamino)-2-pyridinecarboxamide]	≤ 500
COc1cc(Nc2nccc(Nc3cnc4c(c3)O[C@@H]3CCCC[C@@H]3O4)n2)ccc1O[C@H]1C[C@@H](N(C)C)C1 [Compound 190, 4-[(8aS,10aR)-5,6,7,8,8a, 10a-hexahydro-9,10-dioxa-1-aza-3-anthrylamino]-2-{3-methoxy-4-[(1s,3S)-3-(dimethylamino)cyclobutoxy]phenylamino}pyrimidine]	≤ 500
COc1cc(Nc2nccc(Nc3cnc4cc(C)ccc4c3)n2)ccc1O[C@H]1C[C@H](N(C)C)C1 [Compound 336, 2-{3-methoxy-4-[(1r,3r)-3-(dimethylamino)cyclobutoxy]phenylamino}-4-(7-methyl-3-quinolylamino)pyrimidine]	≤ 500

The next lines start with the values.

IC50 [nM]	Compound
≤ 500	COc1cc(Nc2nccc(Nc3cnc4cc(F)c(F)cc4c3)n2)cnc1N1CCNC(C(F)(F)F)C1 (stereo not drawn) [Compound 176, N4-(6,7-difluoroquinolin-3-yl)-N2-(5-methoxy-6-(3-(trifluoromethyl)piperazin-1-yl)pyridin-3-yl)pyrimidine-2,4-diamine]
500 to 2000	COc1cc(Nc2nccc(Nc3cnc4cc(F)c(F)cc4c3)n2)cnc1N1CCS(=O)(=O)CC1 [Compound 161, 4-(5-((4-((6,7-difluoroquinolin-3-yl)amino)pyrimidin-2-yl)amino)-3-methoxypyridin-2-yl)thiomorpholine 1,1-dioxide]
≤ 500	COc1cc(Nc2nccc(Nc3cnc4ccc(C5CC5)cc4c3)n2)ccc1OCCCN1CCCCC1 [Compound 102, 4-(6-cyclopropyl-3-quinolylamino)-2-[3-methoxy-4-(3-piperidinopropoxy)phenylamino]pyrimidine]
≤ 500	COc1cc(Nc2nccc(Nc3cnc4ccc(Cl)cc4c3)n2)cnc1N1CCN(CC#N)CC1 [Compound 479, (4-{5-[4-(6-chloro-3-quinolylamino)-2-pyrimidinylamino]-3-methoxy-2-pyridyl}-1-piperazinyl)acetonitrile]
≤ 500	c1ccc2ncc(Nc3ccnc(Nc4ccc(OCCCN5CCCCC5)c(OCC5CCCO5)c4)n3)cc2c1 (stereo not drawn) [Compound 402, 2-{4-(3-piperidinopropoxy)-3-[(tetrahydro-2-furyl)methoxy]phenylamino}-4-(3-quinolylamino)pyrimidine]
≤ 500	C[C@@H]1COc2ncc(Nc3ccnc(Nc4ccc(OCCCN5CCOCC5)cc4)n3)cc2O1 [Compound 105, 4-[(R)-2-methyl-2,3-dihydro-1,4-dioxa-5-aza-7-naphthylamino]-2-[p-(3-morpholinopropoxy)phenylamino]pyrimidine]
500 to 2000	COc1cccc2cc(Nc3ccnc(Nc4ccc(OCCCN5CCOCC5)cc4)n3)cnc12 [Compound 417, 4-(8-methoxy-3-quinolylamino)-2-[p-(3-morpholinopropoxy)phenylamino]pyrimidine]
≤ 500	CCc1ccc2ncc(Nc3ccnc(Nc4ccc(OCCCN5CCOCC5)c(OC)c4)n3)cc2c1 [Compound 104, 4-(6-ethyl-3-quinolylamino)-2-[3-methoxy-4-(3-morpholinopropoxy)phenylamino]pyrimidine]
≤ 500	c1cc(Nc2cnc3c(c2)OCCO3)nc(Nc2ccc(OCCCN3CCOCC3)cc2)n1 [Compound 388, 4-(2,3-dihydro-1,4-dioxa-5-aza-7-naphthylamino)-2-[p-(3-morpholinopropoxy)phenylamino]pyrimidine]
≤ 500	COc1cc(N2CCN(C3COC3)CC2)ncc1Nc1ncc(F)c(Nc2cc3ccccc3nc2C(N)=O)n1 [Compound 495, 3-(5-fluoro-2-{4-methoxy-6-[4-(3-oxetanyl)-1-piperazinyl]-3-pyridylamino}-4-pyrimidinylamino)-2-quinolinecarboxamide]
≤ 500	c1ccc2ncc(Nc3ccnc(Nc4ccc(OCCCN5CCOCC5)nc4)n3)cc2c1 [Compound 31, 2-[6-(3-morpholinopropoxy)-3-pyridylamino]-4-(3-quinolylamino)pyrimidine]
≤ 500	COc1cc(Nc2nccc(Nc3cnc4c(c3)OCCC4)n2)ccc1OCCCN1CCCCC1 [Compound 383, 4-(3,4-dihydro-2H-1-oxa-5-azanaphth-7-ylamino)-2-[3-methoxy-4-(3-piperidinopropoxy)phenylamino]pyrimidine]
≤ 500	COc1cc(Nc2nccc(Nc3cc4cc(Br)ccc4[nH]c3=O)n2)ccc1O[C@H]1C[C@H](N(C)C)C1 [Compound 111]
≤ 500	Clc1ccc2ncc(Nc3ccnc(Nc4ccc(OCCCN5CCOCC5)cc4)n3)cc2c1 [Compound 401, 4-(6-chloro-3-quinolylamino)-2-[p-(3-morpholinopropoxy)phenylamino]pyrimidine]
≤ 500	COc1cc(Nc2nccc(Nc3cnc4c(c3)OCC(C)O4)n2)ccc1OCCCN1CCCCC1 (stereo not drawn) [Compound 101, 2-[3-methoxy-4-(3-piperidinopropoxy)phenylamino]-4-(3-methyl-2,3-dihydro-1,4-dioxa-5-aza-7-naphthylamino)pyrimidine]
2000 to 10000	CS(=O)(=O)c1ccc2ncc(Nc3ccnc(Nc4ccc(OCCCN5CCOCC5)cc4)n3)cc2c1 [Compound 411, 4-(6-mesyl-3-quinolylamino)-2-[p-(3-morpholinopropoxy)phenylamino]pyrimidine]
500 to 2000	COc1cc(Nc2nccc(Nc3cnc4cc(F)c(F)cc4c3)n2)cnc1N1CCS(=N)(=O)CC1 [Compound 158, 4-(5-((4-((6,7-difluoroquinolin-3-yl)amino)pyrimidin-2-yl)amino)-3-methoxypyridin-2-yl)-1-imino-116-thiomorpholine 1-oxide]
≤ 500	CN(C)CC1COc2cc(Nc3nccc(Nc4cc5cc(Cl)ccc5[nH]c4=O)n3)ccc2O1 (stereo not drawn) [Compound 245, 6-chloro-3-(2-{2-[(dimethylamino)methyl]-2,3-dihydro-1,4-benzodioxin-6-ylamino}-4-pyrimidinylamino)-1,2-dihydro-2-quinolinone]
